Assay type in all cases: cell-based, mouse
For data set [1], the system named is RAW264.7 cells. Put plainly: In vitro cytotoxicity assay (MTT). The settings on record: RAW264.7, MTT. As to the method:
MTT assay was used to determine cell viability. RAW264.7 cells in the logarithmic growth phase were cultured in 96-well plates with 6 × 10^3 cells in each well and incubated for 24 h. The surviving cells were then determined by MTT method. […] Cell growth inhibition ratio was calculated as follows: Cellgrowthinhibitionratio%=ODvehicle−ODtreaed/ODvehicle×100%
Cell cytotoxicity CC50 value were conducted by using Nonlinear regression (curve fit) analytic procedure in GraphPad Prism 8.

The subject of data set [2] is sRANKL induced osteoclast differentiation. Put plainly: In vitro anti-osteoclastogenesis activity determination (TRAP staining). On the set-up: key to inhibition of osteoclastogenesis, dose-response (fig. S2a): % inhibition = 100 − (treated−unstimulated)/(untreated−unstimulated)×100. Conditions: for IC50: BMMs, M-CSF + 100 ng/mL sRANKL, 5 days, TRAP staining, read-out: OC IC50 (anti-osteoclastogenesis activity); for inhibition of osteoclastogenesis, dose-response (fig. S2a): three replicate columns. As for the experimental part: (§1) Mouse osteoclasts were cultured according to the previously reported protocols. BMMs were plated in 96-well plates at a density of 6 × 10^3 cells/well with complete medium containing 10 ng/mL M-CSF. The following day, cells were then stimulated with 100 ng/mL sRANKL in the presence or absence of compounds with different concentrations every 2 days until osteoclasts formed. In order to calculate IC50, we set 9 concentrations for each compound and untreated and non-sRANKL unstimulating group as controls, each with triplicated repeated wells. After 5 days, cells were fixed with 4% paraformaldehyde and then applied TRAP-staining to identify osteoclasts by using the TRAP-staining kit. Osteoclasts number (OC No.) in each well was counted and the percentage of inhibition ratio was calculated as follows:1 OCinhibitoryratio%=100−OCNo.treated−OCNo.unstimulating/OCNo.untreated−OCNo.unstimulating×100%
The dosages and their correspondent osteoclastogenesis inhibitory activity curve and IC50 value were conducted by using Nonlinear regression (curve fit) analytic procedure in GraphPad Prism 8. Photographs of individual wells were taken using Leica microscope.

The subject of data set [3] is BMM cells. In words: Osteoclastogenic assay of WT, single-point mutated sRANKL and L-RANKL. The settings on record: three replicates. As for the experimental part: Fig. 1 Evidence for selective sRANKL inhibition binding site identification. a Proposed small molecule binding site that can be used to distinguish sRANKL from mRANKL. b he probabilities that distances of residue pairs greater than 1.8 Å in sRANKL (red) and mRANKL (blue). The data are calculated based on conformation trajectories from 100 ns MD simulations on sRANKL and mRANKL. c SDRP frequency in sRANKL and mRANKL. d, e The distance of Y236-D303 and K182-R224 in sRANKL and mRANKL after MD simulation. f, g and h Osteoclastogenesis function of single-point mutated rat sRANKL and WT sRANKL. Representative TRAP staining images from one well each, with triplicate repeats wells of BMM cells isolated from C57BL/6 mice cultured with colony-stimulating factor 1 (M-CSF (10 ng/mL) and either varying WT sRANKL or mutated sRANKL (25–200 ng/mL). The number of osteoclasts counted in the osteoclastogenesis assay with mutated sRANKL. Data were presented as group mean ± s.d., n = 3 biological replicates.
as §1
GST-sRANKL was expressed and purified following a previously reported protocol. Rat sRANKL (aa160–318) cDNA was cloned into the bacterial expression vectors pGEX-3X and pGEX-2T with purification GST tag and resultant plasmid named p3rRANKL1. Label-free sRANKL protein in this study was obtained by removing His6-sumo tag from fusion protein His6-sumo-sRANKL. The DNA sequence encoding sRNAKL was inserted downstream the His6-sumo tag of a modified pET20b (+) plasmid. Single point mutations of sRANKL (K182A, R192A, W194A, R224A, H226A, E227A, Q238A, Y242A, H254A, N255A, E270A, K283A, D301A, D303A, or D305A) were constructed by PCR amplification using primer pairs to introduce the designed mutations to pET20b-His6-sumo-sRANKL recombinant plasmid. L-RANKL (binary-RANKL) plasmid was constructed as follow: the consecutive DNA sequence sequentially encoding His6-sumo tag and two sRANKL monomers was cloned into pET20b by PCR amplification using primer pairs to introduce the following restriction enzyme sites to the coding sequences: Nde I-His6-sumo-sRANKL-Bam HI and Bam HI-sRNAKL-Xho I. Each PCR product was double digested with the appropriate restriction enzymes (Thermo) and ligated to the pET20b vector between the Nde I and Xho I sites. Gly-Ser-Gly-Ser was designed to link the two monomers. After confirmed by sequence analysis, the recombinant plasmids were transformed into Escherichia coli BL21 (DE3) cells. The transformed cells were grown in LB media till OD600 about 0.6, then 0.15 mM IPTG was added to induce protein overexpression for 16 h at 20 °C.

Where “and” joins values, the source holds several entries; their conditions need not be identical. Equal entries are not always repeated.

In the case of `CC(C)OC(=O)C(=NNc1ccccc1C(=O)O)C(=O)Nc1ccccn1` [S3-15-4], it took 57.2 µM to reach half-maximal cytotoxicity in data set [1] (CC50). Moreover, the IC50 in data set [2] came out at 620 nM. Also, the “inhibition of osteoclastogenesis, dose-response (fig. S2a)” value (“inhibition of osteoclastogenesis” below) is 19.4737 and 18.6842 and 17.1053 in data set [2] (conc. 0.0023464 μM); 16.7105 and 16.3158 and 13.9474 in data set [2] (conc. 0.00774313 μM); 17.8947 and 11.579 and 18.2895 in data set [2] (conc. 0.0255523 μM); 16.7105 and 20.2632 and 17.8947 in data set [2] (conc. 0.0843226 μM); 34.8684 and 32.5 and 38.8158 in data set [2] (conc. 0.278265 μM); 53.8158 and 43.9474 and 58.5526 in data set [2] (conc. 0.918274 μM). In addition, the “inhibition of osteoclastogenesis” value in data set [2] (conc. 3.0303 μM) was 73.9474 and 71.9737 and 70.3947; in data set [2] (conc. 10 μM), 88.5526 and 83.421 and 86.579; in data set [2] (conc. 33 μM) it was 100.

As to `COC(=O)c1cccc(NC(=O)C(=NNc2ccccc2C(=O)O)C(C)=O)n1` [S3-15-2], the CC50 in data set [1] is more than 100 µM. In data set [2], the IC50 is 1260 nM. For the same molecule, the “inhibition of osteoclastogenesis” value in data set [2] (conc. 0.0023464 μM) is 11.9718 and 6.338 and 4.225; in data set [2] (conc. 0.00774313 μM) it was 7.394 and 8.4507 and 9.155; in data set [2] (conc. 0.0255523 μM), 9.507 and 6.338 and 9.155; in data set [2] (conc. 0.0843226 μM) it was 31.6901 and 21.831 and 24.2958; in data set [2] (conc. 0.278265 μM), 33.0986 and 27.4648 and 28.169; in data set [2] (conc. 0.918274 μM), 47.1831 and 47.5352 and 44.3662. Further, the “inhibition of osteoclastogenesis” value is 59.1549 (2×) and 58.0986 in data set [2] (conc. 3.0303 μM); 72.8873 and 71.1268 and 70.4225 in data set [2] (conc. 10 μM); 88.3803 and 89.4366 and 88.7324 in data set [2] (conc. 33 μM).

In turn, `CC(=O)C(=NNc1ccccc1C(=O)O)C(=O)Nc1nc(C)c(C(=O)N2CCOCC2)s1` [S3-20] came in with a CC50 in data set [1] of more than 100 µM. The IC50 in data set [2] was determined as 8710 nM. Also, the “inhibition of osteoclastogenesis” value in data set [2] (conc. 0.0023464 μM) was -0.2448 and 3.06 and 1.591; in data set [2] (conc. 0.00774313 μM), 8.935 and 4.896 and 2.326; in data set [2] (conc. 0.0255523 μM), 5.263 and 4.529 and 0.8568; in data set [2] (conc. 0.0843226 μM) it was 5.63 and 2.326 and 1.591; in data set [2] (conc. 0.278265 μM) it was 4.529 and 3.06 and 3.794; in data set [2] (conc. 0.918274 μM) it was 5.63 and 5.263 (2×). In addition, the “inhibition of osteoclastogenesis” value in data set [2] (conc. 3.0303 μM) was 5.263 and 7.466 and 5.998; in data set [2] (conc. 10 μM), 58.8739 and 58.1395 and 58.5067; in data set [2] (conc. 33 μM), 97.4296 and 97.0624 and 96.328.

In data set [1], `CCOC(=O)c1sc(NC(=O)C(=NNc2ccc(OC)cc2C(=O)O)C(C)=O)nc1C` [S3-21] came in with a CC50 of more than 100 µM. The IC50 in data set [2] was 950 nM. The “inhibition of osteoclastogenesis” value in data set [2] (conc. 0.0023464 μM) was 1.224 and -3.182 and 3.06; in data set [2] (conc. 0.00774313 μM) it was 7.099 and 0.1224 and 2.326; in data set [2] (conc. 0.0255523 μM), 7.099 and 3.427 and 5.998; in data set [2] (conc. 0.0843226 μM), 11.5055 and 14.0759 and 15.9119; in data set [2] (conc. 0.278265 μM), 35.7405 and 36.4749 and 35.0061; in data set [2] (conc. 0.918274 μM) it was 54.8348 and 53.7332 and 55.5692. The “inhibition of osteoclastogenesis” value was 59.2411 and 62.1787 and 63.2803 in data set [2] (conc. 3.0303 μM); 74.6634 and 76.8666 and 77.9682 in data set [2] (conc. 10 μM); 100 in data set [2] (conc. 33 μM).

For `CCOC(=O)c1sc(NC(=O)C(=NNc2cc(C)ccc2C(=O)O)C(C)=O)nc1C` [S3-10], the CC50 in data set [1] stood at 41.1 µM. Further, the “inhibition of osteoclastogenesis” value in data set [2] (conc. 0.0023464 μM) was 3.829 and 3.173 and -0.4376; in data set [2] (conc. 0.00774313 μM), 4.486 and 2.516 and 3.173; in data set [2] (conc. 0.0255523 μM), 5.142 and 3.173 and 7.1116; in data set [2] (conc. 0.0843226 μM) it was 9.409 and 8.096 and 12.3632; in data set [2] (conc. 0.278265 μM), 13.6761 and 23.1947 and 19.256; in data set [2] (conc. 0.918274 μM), 34.0263 and 27.4617 (2×). The “inhibition of osteoclastogenesis” value is 35.3392 and 33.3698 and 37.6368 in data set [2] (conc. 3.0303 μM); 87.1991 and 82.6039 and 90.1532 in data set [2] (conc. 10 μM); 100 in data set [2] (conc. 33 μM).

For the molecule `CC(=O)C(=NNc1ccccc1C(=O)O)C(=O)Nc1nc2ccccc2s1` [S3-16], the half-maximal cytotoxic concentration (CC50) in data set [1] was 69.2 µM. In data set [2], the IC50 came to 730 nM. For the same molecule, the “inhibition of osteoclastogenesis” value in data set [2] (conc. 0.00774313 μM) is 3.543 and 4.724 and 0.7874; in data set [2] (conc. 0.0255523 μM), 9.449 and 8.661 (2×); in data set [2] (conc. 0.0843226 μM), 16.9291 and 24.4094 and 12.9921; in data set [2] (conc. 0.278265 μM), 30.315 and 29.5276 and 31.1024; in data set [2] (conc. 0.918274 μM) it was 51.1811 and 52.7559 and 54.7244; in data set [2] (conc. 3.0303 μM), 73.2284 and 71.6535 and 75.1968. The “inhibition of osteoclastogenesis” value is 82.6772 and 95.2756 and 99.2126 in data set [2] (conc. 10 μM); 100 in data set [2] (conc. 33 μM).

B1: K283A (protein, UniProt Q9ESE2 69-318, looked up, variant K283A)
extracellular domain: LYFRAQMDPNRISEDSTRCFYRILRLRENTGLQDSTLESEDTEALPDSCRRMKQAFQGAVQRELQHIVGPQRFSGVPAMMEGSWLDVARRGKPEAQPFAHLTINAADIPSGSHKVSLSSWYHDRGWAKISNMTLSNGKLRVNQDGFYYLYANICFRHHETSGSVPADYLQLMVYVVKTSIKIPSSHNLMKGGSTKNWSGNSEFHFYSINVGGFFALRAGEEISVQVSNPSLLDPDQDATYFGAFKVQDID
modifications: extracellular domain
Regarding B1, the “osteoclast formation (fig. S4a)” value was 4 (2×) and 8 in data set [3] (25 ng/mL); 11 in data set [3] (50 ng/mL); 15 and 19 and 17 in data set [3] (100 ng/mL); 23 and 19 and 24 in data set [3] (200 ng/mL).

The values are drawn from publication PMC9468151, “Identification of a binding site on soluble RANKL that can be targeted to inhibit soluble RANK-RANKL interactions and treat osteoporosis” (Nature Communications, 2022).
